Settings: 101.33 kPa, Crystal, Vacuum adiabatic calorimetry

O=C(CO)[C@@H](O)[C@@H](O)[C@H](O)CO [D-(-)-tagatose]
Settings	molar entropy [J/K/mol]
10 K	0.24
20 K	2.37
30 K	6.67
40 K	12.43
50 K	19.05
60 K	26.17
70 K	33.58
80 K	41.15
90 K	48.83
100 K	56.57
110 K	64.33
120 K	72.1
130 K	79.86
140 K	87.6
150 K	95.33
160 K	103.03
170 K	110.71
180 K	118.38
190 K	126.03
200 K	133.66
210 K	141.29
220 K	148.91
230 K	156.53
240 K	164.14
250 K	171.76
260 K	179.37
270 K	187
280 K	194.64
290 K	202.3
298.15 K	208.54
300 K	209.96
310 K	217.63
320 K	225.31
330 K	232.99

O=C(CO)[C@@H](O)[C@H](O)[C@H](O)CO [D-fructose]
Settings	molar entropy [J/K/mol]
10 K	0.22
20 K	2.49
30 K	7.15
40 K	13.3
50 K	20.28
60 K	27.72
70 K	35.42
80 K	43.25
90 K	51.17
100 K	59.14
110 K	67.11
120 K	75.09
130 K	83.05
140 K	91
150 K	98.92
160 K	106.81
170 K	114.68
180 K	122.52
190 K	130.34
200 K	138.14
210 K	145.91
220 K	153.67
230 K	161.42
240 K	169.16
250 K	176.89
260 K	184.62
270 K	192.35
280 K	200.07
290 K	207.79
298.15 K	214.09
300 K	215.52
310 K	223.26
320 K	231.02
330 K	238.78

O=C(CO)[C@H](O)[C@H](O)[C@H](O)CO [D-psicose]
Settings	molar entropy [J/K/mol]
10 K	0.25
20 K	2.96
30 K	8.19
40 K	14.69
50 K	21.82
60 K	29.28
70 K	36.93
80 K	44.67
90 K	52.46
100 K	60.26
110 K	68.06
120 K	75.83
130 K	83.57
140 K	91.28
150 K	98.95
160 K	106.58
170 K	114.19
180 K	121.76
190 K	129.31
200 K	136.83
210 K	144.33
220 K	151.81
230 K	159.28
240 K	166.73
250 K	174.17
260 K	181.61
270 K	189.03
280 K	196.45
290 K	203.86
298.15 K	209.9
300 K	211.27
310 K	218.67
320 K	226.07
330 K	233.48

From the NIST ThermoML archive (doi:10.1016/j.jct.2018.11.014)
